In ChEMBL document CHEMBL3045996, “Use of classical and 3-D QSAR to examine the hydration state of juvenile hormone esterase inhibitors” (Bioorg Med Chem, 2003):

Test: Inhibition of juvenile hormone esterase
For `O=C(CS(=O)(=O)CCc1ccccc1)C(F)(F)F`, the pIC50 was 6.31. Compound `CCCCCCCCSC(CC)C(=O)C(F)(F)F` (configuration not stated) has a pIC50 of 5.32. Work on `O=C(CSc1cccc(C(F)(F)F)c1)C(F)(F)F` yielded a pIC50 of 5.6. Work on `Cc1cccc(SCC(=O)C(F)(F)F)c1` yielded a pIC50 of 6.89. For `CCCCCCCCSC(C(=O)C(F)(F)F)c1ccccc1` (configuration not stated), the pIC50 was 4.09. `CCCCCCCC(CC)SCC(=O)C(F)(F)F` (configuration not stated) showed a pIC50 of 8.24. Work on `CCCCCCCCCCCCCC(=O)C(F)(F)F` yielded a pIC50 of 5.41. `CCCCCC/C=C\C(=O)C(F)(F)F` gave a pIC50 of 4.1. In the case of `O=C(CSc1cc(Cl)ccc1Cl)C(F)(F)F`, the pIC50 is reported as 7.64. In the case of `O=C(C[S+]([O-])c1ccccc1)C(F)(F)F` (configuration not stated), the pIC50 is reported as 4.21. `CC(C)=CCCC(C)CCSCC(=O)C(F)(F)F` (configuration not stated) showed a pIC50 of 8.35. `COC(C)(C)CCCC(C)CCSCC(=O)C(F)(F)F` (configuration not stated) gave a pIC50 of 8.12. Compound `CCCCSCC(=O)C(F)(F)F` has a pIC50 of 5.82. For `CCCCCCCC/C=C/C(=O)C(F)(F)F`, the pIC50 was 6.06. For `O=C(CSc1c(Cl)c(Cl)c(Cl)c(Cl)c1Cl)C(F)(F)F`, the pIC50 was 7.8. With `O=C(CSc1ccccc1Br)C(F)(F)F` the pIC50 was 6.17. Work on `CC(C)(C)c1ccc(SCC(=O)C(F)(F)F)cc1` yielded a pIC50 of 8.12. With `O=C(CSc1ccccc1Nc1ccccc1)C(F)(F)F` the pIC50 was 7.52. Work on `O=C(C#Cc1ccccc1)C(F)(F)F` yielded a pIC50 of 5.27. `Cc1cccc(CSCC(=O)C(F)(F)F)c1` showed a pIC50 of 5.1. `CCCCCCCCCCCCCSCC(=O)C(F)(F)F` gave a pIC50 of 7.35. In the case of `CCCCCCCCCCCCCCC(=O)C(F)(F)F`, the pIC50 is reported as 5.14. Compound `CCCCCCCC(C)SC(C)C(=O)C(F)(F)F` (configuration not stated) has a pIC50 of 8.07. With `CCCCCCCCS(=O)(=O)CC(=O)C(F)(F)F` the pIC50 was 6.9. `O=C(CSc1cccc(Br)c1)C(F)(F)F` gave a pIC50 of 6.06. Compound `Cc1ccc(SCC(=O)C(F)(F)F)cc1C` has a pIC50 of 7.96. In the case of `CCCCCCCCCCS(=O)(=O)CC(=O)C(F)(F)F`, the pIC50 is reported as 7.36. With `CC(C)=CCCC(C)C/C=C\c1ccc(C(=O)C(F)(F)F)cc1` (configuration not stated) the pIC50 was 6.7. Work on `O=C(CS(=O)(=O)c1ccccc1)C(F)(F)F` yielded a pIC50 of 3.98. Compound `CCCCCCCCSCC(=O)C(F)(F)F` has a pIC50 of 8.62. `O=C(CSc1ccccc1CO)C(F)(F)F` showed a pIC50 of 5.15. Compound `O=C(CSc1ccccc1Cl)C(F)(F)F` has a pIC50 of 5.68. In the case of `O=C(CSCc1ccccc1)C(F)(F)F`, the pIC50 is reported as 4.82. In the case of `CCCCCC/C=C/C(=O)C(F)(F)F`, the pIC50 is reported as 5.14. `CCCCCCC(=O)C(F)(F)F` showed a pIC50 of 3.66. `O=C(CSc1ccc(O)cc1)C(F)(F)F` gave a pIC50 of 5.21. `O=C(CSc1cc(Cl)c(Cl)cc1Cl)C(F)(F)F` showed a pIC50 of 7.49. In the case of `CCCCCCCC[S+]([O-])CC(=O)C(F)(F)F` (configuration not stated), the pIC50 is reported as 7.37. With `Cc1ccc(SCC(=O)C(F)(F)F)cc1` the pIC50 was 6.96. With `CCCCCCCCCCCCC(=O)C(F)(F)F` the pIC50 was 7. For `O=C(CSCc1ccc(Cl)cc1)C(F)(F)F`, the pIC50 was 5.34. `CCCCCCCCCCCCCCCCCC(=O)C(F)(F)F` showed a pIC50 of 4.85. With `CC(C)CCSCC(=O)C(F)(F)F` the pIC50 was 5.6. Compound `O=C(CSCCc1ccccc1)C(F)(F)F` has a pIC50 of 5.49. In the case of `CCCCCCC#CC(=O)C(F)(F)F`, the pIC50 is reported as 6.4. With `O=C(CSc1ccccc1)C(F)(F)F` the pIC50 was 5.06. `Cc1ccc(C)c(SCC(=O)C(F)(F)F)c1` gave a pIC50 of 6.77. Compound `CCCCCCCC(=O)C(F)(F)F` has a pIC50 of 4.17. `O=C(CSc1c(Cl)cccc1Cl)C(F)(F)F` gave a pIC50 of 7.11. With `COc1ccc(C(=O)C(F)(F)F)cc1` the pIC50 was 4.15. For `CCCCCCCCCCCCCCSCC(=O)C(F)(F)F`, the pIC50 was 6.4. In the case of `O=C(c1ccccc1)C(F)(F)F`, the pIC50 is reported as 3.04. For `Cc1cc(C)cc(SCC(=O)C(F)(F)F)c1`, the pIC50 was 5.74. Compound `O=C(CSc1cccc(Cl)c1)C(F)(F)F` has a pIC50 of 6.4. Compound `CCCCCCCCCCSCC(=O)C(F)(F)F` has a pIC50 of 7.7. Work on `CCCCCCCCC(=O)C(F)(F)F` yielded a pIC50 of 5.17. Work on `COc1ccc(SCC(=O)C(F)(F)F)cc1` yielded a pIC50 of 5.89. For `CCCCCCCCCSCC(=O)C(F)(F)F`, the pIC50 was 8.43. In the case of `O=C(CSc1ccc(Cl)c(Cl)c1)C(F)(F)F`, the pIC50 is reported as 7.7. `COC(C)(C)CCC/C(C)=C\CCSCC(=O)C(F)(F)F` showed a pIC50 of 8.49. In the case of `CCCCC(C)(C)CC(C)CSCC(=O)C(F)(F)F` (configuration not stated), the pIC50 is reported as 7.98. Compound `CN(C)c1ccc(SCC(=O)C(F)(F)F)cc1` has a pIC50 of 7.05. Compound `CCCCCCCCCCC(=O)C(F)(F)F` has a pIC50 of 6.66. In the case of `CCc1ccccc1SCC(=O)C(F)(F)F`, the pIC50 is reported as 5.54. Compound `CCCCCCCCCCCCSCC(=O)C(F)(F)F` has a pIC50 of 7.82. `O=C(CSCCCc1ccccc1)C(F)(F)F` showed a pIC50 of 6.77. Compound `O=C(CSC1CCCCC1)C(F)(F)F` has a pIC50 of 5.28. `CCCCCCCCCCC#CC(=O)C(F)(F)F` gave a pIC50 of 7.57. Compound `CCCCCCCCSC(C)C(=O)C(F)(F)F` (configuration not stated) has a pIC50 of 9.06. In the case of `CCCCCCCCCCCCCCCCCCSCC(=O)C(F)(F)F`, the pIC50 is reported as 6.3. In the case of `CCCCCCCCCCCSCC(=O)C(F)(F)F`, the pIC50 is reported as 7.37. With `Cc1ccccc1SCC(=O)C(F)(F)F` the pIC50 was 5.37. For `CCCCCCCCCCCCC#CC(=O)C(F)(F)F`, the pIC50 was 8. Work on `O=C(CSc1ccc(F)cc1)C(F)(F)F` yielded a pIC50 of 5.08. `CCCCCCCC(CCC)SCC(=O)C(F)(F)F` (configuration not stated) showed a pIC50 of 7.89. `CCCCCCCSCC(=O)C(F)(F)F` gave a pIC50 of 8.09. For `O=C(CSc1ccccc1Oc1ccccc1)C(F)(F)F`, the pIC50 was 6.66. Work on `CC(C)=CCC/C(C)=C\CCSCC(=O)C(F)(F)F` yielded a pIC50 of 8.51. Compound `CCCCCCCCSC(CCC)C(=O)C(F)(F)F` (configuration not stated) has a pIC50 of 4.09. In the case of `O=C(CSc1ccc(Br)cc1)C(F)(F)F`, the pIC50 is reported as 6.39. Work on `Cc1cc(C(C)(C)C)ccc1SCC(=O)C(F)(F)F` yielded a pIC50 of 8.52. `O=C(CSc1c(F)c(F)c(F)c(F)c1F)C(F)(F)F` gave a pIC50 of 4.96. `CCCCCCCC(C)SCC(=O)C(F)(F)F` (configuration not stated) showed a pIC50 of 9.77. For `CCCCCCCC(CCCC)SCC(=O)C(F)(F)F` (configuration not stated), the pIC50 was 7.16. `CCCCC#CC(=O)C(F)(F)F` showed a pIC50 of 5.49. `COc1ccccc1SCC(=O)C(F)(F)F` showed a pIC50 of 5.7. `Cc1ccc(SCC(=O)C(F)(F)F)c(C)c1` showed a pIC50 of 6.04. With `CCCCCSCC(=O)C(F)(F)F` the pIC50 was 6.11. In the case of `Cc1cccc(C)c1SCC(=O)C(F)(F)F`, the pIC50 is reported as 6.92. For `CCCCCCCCCCCCCCCCSCC(=O)C(F)(F)F`, the pIC50 was 6.2. With `CC(C)c1ccccc1SCC(=O)C(F)(F)F` the pIC50 was 6.47. With `O=C(CSCc1ccccc1Cl)C(F)(F)F` the pIC50 was 5.18. In the case of `CCCCCCCCCCCCc1ccc(CSCC(=O)C(F)(F)F)cc1`, the pIC50 is reported as 5.8. Work on `Cc1ccc(CSCC(=O)C(F)(F)F)cc1` yielded a pIC50 of 5.2. In the case of `Cc1cc(SCC(=O)C(F)(F)F)ccc1Br`, the pIC50 is reported as 7.89. Work on `O=C(CSc1c(F)c(F)cc(F)c1F)C(F)(F)F` yielded a pIC50 of 5.92. In the case of `CCCCCCCCC#CC(=O)C(F)(F)F`, the pIC50 is reported as 7.24. Compound `CC(C)(C)c1ccc([S+]([O-])CC(=O)C(F)(F)F)cc1` (configuration not stated) has a pIC50 of 7.64. `CC(C/C=C\c1ccc(C(=O)C(F)(F)F)cc1)CCC1OC1(C)C` (configuration not stated) showed a pIC50 of 6.52. With `COc1cccc(SCC(=O)C(F)(F)F)c1` the pIC50 was 5.89. In the case of `CCCCCCCCCCCCS(=O)(=O)CC(=O)C(F)(F)F`, the pIC50 is reported as 7.21. For `CC(C)(C)SCC(=O)C(F)(F)F`, the pIC50 was 5.3. With `O=C(CSC1CCCC1)C(F)(F)F` the pIC50 was 5.01. With `O=C(CSc1ccc(Cl)cc1)C(F)(F)F` the pIC50 was 5.89. In the case of `CC(CCC1OC1(C)C)CC1OC1c1ccc(C(=O)C(F)(F)F)cc1` (configuration not stated), the pIC50 is reported as 3.3. `Cc1ccccc1CSCC(=O)C(F)(F)F` gave a pIC50 of 4.9. In the case of `CCC(C)CSCC(=O)C(F)(F)F` (configuration not stated), the pIC50 is reported as 5.8.
